Key:
786-O cells [1] = assay: Dose-dependent anti-proliferative effects on 786-O cells (dose response); assay type: cell-based, human; settings: for ED75 / ED90: single drug dose response; for EC50: Homo sapiens, 786-0, single drug dose response, read-out: ED50 (the source's name)
PNXC0010 RCC tumors = assay type: in vivo; settings: PNX0010 subcutaneous xenografts, C.B17/lcrscid mice, 40 mg/kg each drug, orally 3 times/week
Description: PNX0010 subcutaneous xenografts were established in 6 week old male C.B17/lcrscid mice. The mice were treated orally 3 times/week with (i) 10% 2-hydroxypropyl-b-cyclodextrin in PBS (control); (ii) sunitinib (40 mg/kg); (iii) lonafarnib (40 mg/kg); or with sunitinib and lonafarnib combined (n=5 mice/group). Tumor volumes were calculated by the formula: (volume=0.52×(width)2×length).

786-O RCC cells = assay: Cell viability, […]-BLUE assay, 786-O; assay type: cell-based, human; design: dose or concentration left out as unconfirmed; settings: 72 hours
Description: (§1) Treatment with lonafarnib can reinstate sensitivity of RCC cells to TKIs. Pharmacological inhibition of FTase enhances the antitumor activity of sunitinib. Referring to FIG. 3, in Panel A, PNX0010 and 786-O RCC cells were treated with various combinations of lonafarnib ([…]), sunitinib ([…]), and pazopanib ([…]) for 72 hours. Cell viability was examined using Blue […]-BLUE® assay (PROMEGA®). In Panel B, 786-O and PNX0010 RCC cells were treated with lonafarnib ([…]) and/or sunitinib ([…]) for 24 hours. DNA fragmentation was examined by the APO-BRDU kit (The Phoenix Flow Systems) followed by flow cytometry analysis.

PNX0010 RCC cells = assay: Cell viability, […]-BLUE assay, PNX0010; assay type: cell-based, human; design: dose or concentration left out as unconfirmed; settings: 72 hours
Description: as §1

786-O cells [2] = assay: Lysosomal sequestration of sunitinib by fluorescent microscopy; assay type: cell-based, human; design: Sequestration of sunitinib within lysosomes: dose or concentration left out as unconfirmed

SMILES	ED75 (786-O cells [1])	ED90 (786-O cells [1])	Growth of xenograft tumors (tumor volume) (PNXC0010 RCC tumors)	EC50 (786-O cells [1])	Effect on cell viability (786-O RCC cells)	Effect on cell viability (PNX0010 RCC cells)	Sequestration of sunitinib within lysosomes (786-O cells [2]; 60 minutes)	Total cellular accumulation of sunitinib (786-O cells [2]; effect of lonafarnib, data not shown)
CNC(=O)c1ccccc1Sc1ccc2c(/C=C/c3ccccn3)n[nH]c2c1 [Axitinib, axitinib]	7.5 µM	65.1 µM	–	–	–	–	–	–
NC(=O)N1CCC(CC(=O)N2CCC([C@H]3c4ncc(Br)cc4CCc4cc(Cl)cc(Br)c43)CC2)CC1 [Lonafarnib, lonafarnib]	63.3 µM	5672.0 µM	moderate decrease	3.8 µM	modest effect	modest effect	significantly reduced	not affected
CCN(CC)CCNC(=O)c1c(C)[nH]c(/C=C2\C(=O)Nc3ccc(F)cc32)c1C [Sunitinib, sunitinib]	6.7 µM	44.3 µM	–	2.4 µM	–	–	–	–

Source: patent publication US12576075B2, “Combination therapies for treating cancer” (Institute For Cancer Research, priority 2018, dated 2026)
